# Reference: US20250221413A1, “Use and Preparation Method of Sulfoxamyl, and Oxidation System” (priority 2023, published 2025)
# Several values for one entry are separate records, joined by “and”; a condition that tells them apart may be missing. Equal values may be shown once. Entries after “also recorded” stand apart in the source; their conditions may differ.
# System: SD rats
# Experiment: Acute oral toxicity test, probability unit method (Bliss method), LD50 by Probit regression
# Type: in vivo
# Conditions: for Death count: 24 h
# Protocol: Materials: the test agent 98% sulfoxamyl technical, batch number 20230708-1, was provided by Ningxia Hugerise Chemical Co., Ltd. Experimental animals: SPF-grade SD rats, half male and half female, weighing 180 g to 220 g, were provided by Jinan Pengyue Experimental Animal Breeding Co., Ltd., license number SCXK (Lu) 20190003. Rearing environment: the rats were housed in an SPF-grade animal room with free access to water and food, a temperature of 20° C. to 25° C., a humidity of 40% to 60%, and a 12 h/12 h light cycle. Feed: conventional pellet feed was provided by Jinan Pengyue Experimental Animal Breeding Co., Ltd.
# The test was conducted in accordance with “Toxicological test methods of pesticides for registration, GB15670.5-2017”, “Acute toxicity test, GB15193.3-2003” and relevant acute toxicity research data.
# Methods: a single oral fixed-dose procedure was conducted to preliminarily explore the toxic dose range of sulfoxamyl. LD50 and confidence limits were calculated by using the probability unit method (Bliss method). SD rats were randomly divided into 5 groups, 10 rats in each group, half of them were male and half were female. The dosages administered to each group were 474.61 mg/kg, 632.81 mg/kg, 843.75 mg/kg, 1,125 mg/kg, and 1,500 mg/kg. The common ratio value among each dose group was 0.75. After a single oral administration, the mortality rate of the experimental animals was recorded within 24 h and 14 days after administration, while the general condition of the animals was observed, and the food intake and body weight changes were recorded.
# According to the above test dose, number of animals, number of deaths and other data, SPSS statistical software was used to calculate LD50 by Probit regression, and the results are shown in Table 3.
structure (smiles),measurement,setting,value
"CNC(=O)O/N=C(/C(=O)N(C)C)S(C)(=O)=O [Sulfoxamyl, N,N-dimethyl-2-[[[(methylamino)carbonyl]oxy]imino]-2-(methylsulfonyl)acetamide]",toxicity level (acute oral),GB15670-1995 classification,low toxic; also recorded: Low Toxicity
same,Probit Estimation for dose,Probability 0.010,379.474 mg/kg
same,Probit Estimation for log(dose),Probability 0.010,2.579
same,Probit Estimation for dose,Probability 0.020,415.442 mg/kg
same,Probit Estimation for log(dose),Probability 0.020,2.619
same,Probit Estimation for dose,Probability 0.030,440.010 mg/kg
same,Probit Estimation for log(dose),Probability 0.030,2.643
same,Probit Estimation for dose,Probability 0.040,459.445 mg/kg
same,Probit Estimation for log(dose),Probability 0.040,2.662
same,Probit Estimation for dose,Probability 0.050,475.885 mg/kg
same,Probit Estimation for log(dose),Probability 0.050,2.678
same,Probit Estimation for dose,Probability 0.060,490.341 mg/kg
same,Probit Estimation for log(dose),Probability 0.060,2.690
same,Probit Estimation for dose,Probability 0.070,503.377 mg/kg
same,Probit Estimation for log(dose),Probability 0.070,2.702
same,Probit Estimation for dose,Probability 0.080,515.342 mg/kg
same,Probit Estimation for log(dose),Probability 0.080,2.712
same,Probit Estimation for dose,Probability 0.090,526.471 mg/kg
same,Probit Estimation for log(dose),Probability 0.090,2.721
same,Probit Estimation for dose,Probability 0.100,536.928 mg/kg
same,Probit Estimation for log(dose),Probability 0.100,2.730
same,Probit Estimation for dose,Probability 0.150,582.478 mg/kg
same,Probit Estimation for log(dose),Probability 0.150,2.765
same,Probit Estimation for dose,Probability 0.200,621.421 mg/kg
same,Probit Estimation for log(dose),Probability 0.200,2.793
same,Probit Estimation for dose,Probability 0.250,656.898 mg/kg
same,Probit Estimation for log(dose),Probability 0.250,2.817
same,Probit Estimation for dose,Probability 0.300,690.481 mg/kg
same,Probit Estimation for log(dose),Probability 0.300,2.839
same,Probit Estimation for dose,Probability 0.350,723.131 mg/kg
same,Probit Estimation for log(dose),Probability 0.350,2.859
same,Probit Estimation for dose,Probability 0.400,755.539 mg/kg
same,Probit Estimation for log(dose),Probability 0.400,2.878
same,Probit Estimation for dose,Probability 0.450,788.276 mg/kg
same,Probit Estimation for log(dose),Probability 0.450,2.897
same,Probit Estimation for dose,Probability 0.500,821.879 mg/kg
same,Probit Estimation for log(dose),Probability 0.500,2.915
same,Probit Estimation for dose,Probability 0.550,856.914 mg/kg
same,Probit Estimation for log(dose),Probability 0.550,2.933
same,Probit Estimation for dose,Probability 0.600,894.044 mg/kg
same,Probit Estimation for log(dose),Probability 0.600,2.951
same,Probit Estimation for dose,Probability 0.650,934.112 mg/kg
same,Probit Estimation for log(dose),Probability 0.650,2.970
same,Probit Estimation for dose,Probability 0.700,978.282 mg/kg
same,Probit Estimation for log(dose),Probability 0.700,2.990
same,Probit Estimation for dose,Probability 0.750,1028.295 mg/kg
same,Probit Estimation for log(dose),Probability 0.750,3.012
same,Probit Estimation for dose,Probability 0.800,1087.001 mg/kg
same,Probit Estimation for log(dose),Probability 0.800,3.036
same,Probit Estimation for dose,Probability 0.850,1159.674 mg/kg
same,Probit Estimation for log(dose),Probability 0.850,3.064
same,Probit Estimation for dose,Probability 0.900,1258.055 mg/kg
same,Probit Estimation for log(dose),Probability 0.900,3.100
same,Main clinical symptom,oral 474.61 mg/kg,Asymptomatic
same,Death count,"oral 474.61 mg/kg, 474.61 mg/kg",no experimental animals and 0/10
same,Main clinical symptom,oral 632.81 mg/kg,"Intense abdominal breathing,"
same,Death count,"oral 632.81 mg/kg, 632.81 mg/kg",3 and 3/10
same,Main clinical symptom,oral 843.75 mg/kg,"Intense abdominal breathing, malaise, drooling, tremors"
same,Death count,"oral 843.75 mg/kg, 843.75 mg/kg",6 and 6/10
same,Main clinical symptom,oral 1125 mg/kg,"Intense abdominal breathing, malaise, drooling, tremors"
same,Death count,"oral 1125 mg/kg, 1125 mg/kg",7 and 8/10
same,Main clinical symptom,oral 1500 mg/kg,"Intense abdominal breathing,"
same,Death count,"oral 1500 mg/kg, 1500 mg/kg",all animals and 10/10
same,new deaths 14 days after administration compared to 24 h,"oral, all dose groups",no new deaths
